Assay in all cases: In Vitro Kinase Assay
Common to all, as to conditions: pH 7.5

One experiment addresses Angiopoietin-1 receptor (Homo sapiens, UniProt Q02763). Here is the method:
(§1) The IC50 for the different compounds was determined with Invitrogen Z'-LYTE kinase assay kit Ser/Thr 1 peptide PV3174 by following the manufacturer's instructions. To determine the IC50 of receptor tyrosine kinase, an assay based on the ELISA principle with kinases from Biomol (N-terminally fused to GST), POD-coupled antibody from Calbiochem (PY20)) and BM chem chemiluminescence ELISA substrate from Roche was performed.

The target in the next experiment is T1, Aurora kinase A (Homo sapiens, UniProt O14965).
T1 sequence (O14965 whole entry): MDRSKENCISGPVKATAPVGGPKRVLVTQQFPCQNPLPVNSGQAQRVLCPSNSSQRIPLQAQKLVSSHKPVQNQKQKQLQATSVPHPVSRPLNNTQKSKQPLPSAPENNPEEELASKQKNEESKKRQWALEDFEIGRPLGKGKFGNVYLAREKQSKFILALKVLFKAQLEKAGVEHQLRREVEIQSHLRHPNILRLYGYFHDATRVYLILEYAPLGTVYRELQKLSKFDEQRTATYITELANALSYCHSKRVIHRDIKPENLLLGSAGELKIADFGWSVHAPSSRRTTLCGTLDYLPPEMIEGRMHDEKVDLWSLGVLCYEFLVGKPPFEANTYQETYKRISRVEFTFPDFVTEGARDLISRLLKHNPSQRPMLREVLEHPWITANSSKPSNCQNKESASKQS
Here is the method:
as §1

A further experiment addresses Aurora kinase B (Homo sapiens, UniProt Q96GD4). Here is the method: as §1
The target of experiment [1] is Epidermal growth factor receptor (Homo sapiens, UniProt P00533). Here is the method: as §1
Epidermal growth factor receptor, sequence (P00533 whole entry): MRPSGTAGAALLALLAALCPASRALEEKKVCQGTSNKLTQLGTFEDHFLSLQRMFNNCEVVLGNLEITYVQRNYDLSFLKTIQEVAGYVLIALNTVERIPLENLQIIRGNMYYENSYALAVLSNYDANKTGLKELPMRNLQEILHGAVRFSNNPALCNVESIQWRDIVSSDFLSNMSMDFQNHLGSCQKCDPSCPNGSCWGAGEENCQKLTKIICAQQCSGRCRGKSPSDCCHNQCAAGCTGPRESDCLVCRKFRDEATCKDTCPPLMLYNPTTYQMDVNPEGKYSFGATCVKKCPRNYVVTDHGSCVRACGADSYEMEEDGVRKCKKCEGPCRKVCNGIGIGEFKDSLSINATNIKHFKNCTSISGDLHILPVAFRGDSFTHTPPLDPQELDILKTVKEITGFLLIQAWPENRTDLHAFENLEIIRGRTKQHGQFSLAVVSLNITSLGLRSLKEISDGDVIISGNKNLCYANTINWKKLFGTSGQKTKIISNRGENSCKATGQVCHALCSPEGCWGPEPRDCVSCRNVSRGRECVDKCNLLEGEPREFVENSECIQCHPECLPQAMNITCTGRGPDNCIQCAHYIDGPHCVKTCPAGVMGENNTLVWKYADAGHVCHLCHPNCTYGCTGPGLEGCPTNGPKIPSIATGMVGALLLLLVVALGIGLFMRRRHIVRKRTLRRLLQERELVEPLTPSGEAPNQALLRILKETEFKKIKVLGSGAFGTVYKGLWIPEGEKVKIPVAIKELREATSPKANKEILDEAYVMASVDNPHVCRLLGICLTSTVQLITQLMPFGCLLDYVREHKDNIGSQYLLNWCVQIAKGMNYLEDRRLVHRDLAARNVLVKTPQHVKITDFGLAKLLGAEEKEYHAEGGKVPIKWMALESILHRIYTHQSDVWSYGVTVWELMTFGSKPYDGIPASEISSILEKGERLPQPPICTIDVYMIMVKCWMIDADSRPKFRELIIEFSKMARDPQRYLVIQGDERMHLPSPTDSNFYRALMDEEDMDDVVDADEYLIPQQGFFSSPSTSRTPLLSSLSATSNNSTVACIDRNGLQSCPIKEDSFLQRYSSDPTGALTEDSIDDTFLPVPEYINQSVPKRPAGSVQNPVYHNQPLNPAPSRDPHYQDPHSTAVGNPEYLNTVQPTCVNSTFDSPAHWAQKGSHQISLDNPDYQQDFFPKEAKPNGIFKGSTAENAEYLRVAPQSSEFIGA
Experiment [2] addresses Fibroblast growth factor receptor 1 (Homo sapiens, UniProt P11362). The protocol: as §1
The target of experiment [3] is Insulin-like growth factor 1 receptor (Homo sapiens, UniProt P08069). Here is the method:
as §1

Experiment [4] concerns the target Vascular endothelial growth factor receptor 2 (Homo sapiens, UniProt P35968). Here is the method:
as §1

The target in experiment [5] is Vascular endothelial growth factor receptor 3 (Homo sapiens, UniProt P35916). Here is the method: as §1
Vascular endothelial growth factor receptor 3, sequence (P35916 whole entry): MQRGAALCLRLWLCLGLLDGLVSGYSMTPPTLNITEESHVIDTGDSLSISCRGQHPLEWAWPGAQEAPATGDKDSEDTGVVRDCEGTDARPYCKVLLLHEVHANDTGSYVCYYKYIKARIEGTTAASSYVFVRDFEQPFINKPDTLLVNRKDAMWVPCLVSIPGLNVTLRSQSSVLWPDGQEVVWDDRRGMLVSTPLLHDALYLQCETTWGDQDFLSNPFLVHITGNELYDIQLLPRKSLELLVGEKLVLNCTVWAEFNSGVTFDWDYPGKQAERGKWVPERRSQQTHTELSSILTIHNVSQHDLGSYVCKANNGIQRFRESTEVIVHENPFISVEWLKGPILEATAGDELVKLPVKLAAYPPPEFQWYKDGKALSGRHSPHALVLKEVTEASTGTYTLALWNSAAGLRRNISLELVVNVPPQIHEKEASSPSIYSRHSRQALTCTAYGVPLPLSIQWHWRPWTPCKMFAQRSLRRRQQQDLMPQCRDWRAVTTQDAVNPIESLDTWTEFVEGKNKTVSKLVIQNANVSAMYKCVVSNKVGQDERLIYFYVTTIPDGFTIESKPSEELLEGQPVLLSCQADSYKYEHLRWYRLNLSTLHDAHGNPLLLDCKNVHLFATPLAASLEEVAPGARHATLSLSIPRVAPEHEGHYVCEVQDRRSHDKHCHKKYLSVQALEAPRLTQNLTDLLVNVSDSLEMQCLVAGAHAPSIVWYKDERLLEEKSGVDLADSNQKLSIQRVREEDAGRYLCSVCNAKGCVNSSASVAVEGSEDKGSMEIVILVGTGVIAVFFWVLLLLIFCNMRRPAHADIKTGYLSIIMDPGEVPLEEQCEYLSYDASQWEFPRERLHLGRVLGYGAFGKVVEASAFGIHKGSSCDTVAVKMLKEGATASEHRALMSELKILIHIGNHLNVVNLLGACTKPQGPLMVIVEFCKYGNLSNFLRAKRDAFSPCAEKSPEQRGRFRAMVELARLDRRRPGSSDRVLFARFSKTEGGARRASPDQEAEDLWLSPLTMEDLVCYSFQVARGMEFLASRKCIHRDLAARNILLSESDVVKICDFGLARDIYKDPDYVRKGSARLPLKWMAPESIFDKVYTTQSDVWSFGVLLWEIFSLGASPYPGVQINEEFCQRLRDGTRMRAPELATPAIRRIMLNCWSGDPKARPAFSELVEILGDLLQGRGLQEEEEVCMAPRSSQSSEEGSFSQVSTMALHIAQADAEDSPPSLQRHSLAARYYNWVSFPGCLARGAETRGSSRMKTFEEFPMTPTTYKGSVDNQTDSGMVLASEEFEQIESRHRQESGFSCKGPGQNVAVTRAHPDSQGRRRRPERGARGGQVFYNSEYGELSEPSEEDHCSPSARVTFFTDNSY

Insulin-like growth factor 1 receptor, sequence (P08069 31-736 limits assumed): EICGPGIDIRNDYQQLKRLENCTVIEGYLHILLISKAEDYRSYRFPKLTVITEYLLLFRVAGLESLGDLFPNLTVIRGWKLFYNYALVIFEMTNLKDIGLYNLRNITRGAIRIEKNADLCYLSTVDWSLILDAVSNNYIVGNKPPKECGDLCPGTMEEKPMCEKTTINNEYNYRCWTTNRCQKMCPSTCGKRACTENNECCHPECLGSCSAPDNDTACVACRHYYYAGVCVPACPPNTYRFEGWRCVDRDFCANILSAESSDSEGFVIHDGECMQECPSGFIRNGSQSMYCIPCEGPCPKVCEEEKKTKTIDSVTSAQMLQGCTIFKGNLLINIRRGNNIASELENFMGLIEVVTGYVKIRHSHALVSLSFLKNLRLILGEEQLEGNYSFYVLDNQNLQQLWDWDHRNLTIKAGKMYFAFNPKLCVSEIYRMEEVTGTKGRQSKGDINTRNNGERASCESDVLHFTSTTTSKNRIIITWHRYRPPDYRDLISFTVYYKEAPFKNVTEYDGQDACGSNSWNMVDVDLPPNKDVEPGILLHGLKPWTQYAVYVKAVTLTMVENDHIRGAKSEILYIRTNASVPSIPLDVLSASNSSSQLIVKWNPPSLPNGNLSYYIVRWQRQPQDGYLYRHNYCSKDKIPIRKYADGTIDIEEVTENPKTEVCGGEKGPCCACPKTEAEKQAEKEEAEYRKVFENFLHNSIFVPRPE
Insulin-like growth factor 1 receptor, sequence (P08069 741-1367 limits assumed): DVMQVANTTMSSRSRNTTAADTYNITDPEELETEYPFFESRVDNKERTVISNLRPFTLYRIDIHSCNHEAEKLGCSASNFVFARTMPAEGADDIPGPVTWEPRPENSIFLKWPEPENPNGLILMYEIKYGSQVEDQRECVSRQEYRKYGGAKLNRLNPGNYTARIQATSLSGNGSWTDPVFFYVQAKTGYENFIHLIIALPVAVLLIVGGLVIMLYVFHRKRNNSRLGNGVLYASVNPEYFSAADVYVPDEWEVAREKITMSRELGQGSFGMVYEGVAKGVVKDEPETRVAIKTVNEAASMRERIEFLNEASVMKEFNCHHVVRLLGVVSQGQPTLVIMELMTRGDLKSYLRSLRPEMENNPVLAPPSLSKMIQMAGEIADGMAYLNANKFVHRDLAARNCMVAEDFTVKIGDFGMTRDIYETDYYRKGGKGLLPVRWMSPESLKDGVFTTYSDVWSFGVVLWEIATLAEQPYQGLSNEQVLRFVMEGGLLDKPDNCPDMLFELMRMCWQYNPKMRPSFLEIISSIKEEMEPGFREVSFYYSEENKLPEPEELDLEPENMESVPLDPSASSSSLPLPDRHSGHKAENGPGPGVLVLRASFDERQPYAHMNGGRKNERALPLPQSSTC
Angiopoietin-1 receptor, sequence (Q02763 whole entry, the tested form may be a part): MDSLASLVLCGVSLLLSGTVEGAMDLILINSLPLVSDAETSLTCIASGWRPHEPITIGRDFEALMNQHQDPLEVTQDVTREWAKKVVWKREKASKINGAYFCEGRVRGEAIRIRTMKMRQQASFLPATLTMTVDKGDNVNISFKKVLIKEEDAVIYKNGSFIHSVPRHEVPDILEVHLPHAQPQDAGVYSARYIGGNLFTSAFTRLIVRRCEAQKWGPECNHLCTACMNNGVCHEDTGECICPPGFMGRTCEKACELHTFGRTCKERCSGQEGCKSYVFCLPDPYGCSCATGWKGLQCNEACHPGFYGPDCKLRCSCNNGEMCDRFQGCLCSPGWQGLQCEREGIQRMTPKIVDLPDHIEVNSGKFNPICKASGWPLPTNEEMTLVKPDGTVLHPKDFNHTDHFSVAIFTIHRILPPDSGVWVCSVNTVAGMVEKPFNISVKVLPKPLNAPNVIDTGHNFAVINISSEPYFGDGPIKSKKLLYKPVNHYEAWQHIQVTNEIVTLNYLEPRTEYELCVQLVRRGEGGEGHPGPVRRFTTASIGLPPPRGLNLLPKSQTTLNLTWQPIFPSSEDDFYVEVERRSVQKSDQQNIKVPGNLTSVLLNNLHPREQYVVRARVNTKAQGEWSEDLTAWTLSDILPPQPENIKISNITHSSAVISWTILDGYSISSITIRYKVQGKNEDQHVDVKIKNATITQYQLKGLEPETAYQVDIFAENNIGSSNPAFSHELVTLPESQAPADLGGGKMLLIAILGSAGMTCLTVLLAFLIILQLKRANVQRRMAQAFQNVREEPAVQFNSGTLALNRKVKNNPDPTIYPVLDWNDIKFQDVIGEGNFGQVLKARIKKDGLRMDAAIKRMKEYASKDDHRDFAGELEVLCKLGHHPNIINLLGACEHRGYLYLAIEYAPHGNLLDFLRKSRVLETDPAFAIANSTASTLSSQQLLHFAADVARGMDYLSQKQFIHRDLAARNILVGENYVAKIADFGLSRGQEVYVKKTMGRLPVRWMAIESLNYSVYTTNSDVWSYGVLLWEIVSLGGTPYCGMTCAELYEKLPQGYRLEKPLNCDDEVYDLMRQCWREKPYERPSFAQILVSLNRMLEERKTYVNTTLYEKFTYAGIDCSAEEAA

In the case of `CC(C)Nc1nc(-c2ccco2)nc2ccc(C#CCO)cc12` [TC-28], the IC50 was greater than 100 µM at Angiopoietin-1 receptor; 2.7 µM against Aurora kinase A; greater than 100 µM against Aurora kinase B; greater than 100 µM in experiment [1]; greater than 100 µM in experiment [2]; greater than 100 µM in experiment [3]. Further, the IC50 in experiment [4] and in experiment [5] was greater than 100 µM each time.
For the molecule `CC(C)Nc1nc(-c2ccco2)nc2ccc(C=CC(C)(C)O)cc12` [TC-34], the IC50 is greater than 100 µM on Angiopoietin-1 receptor; 1.9 µM at Aurora kinase A; 16.2 µM against Aurora kinase B; greater than 100 µM in experiment [1]; greater than 100 µM in experiment [2]; 41.5 µM in experiment [3]. The molecule further came in with a half-maximal inhibitory concentration (IC50) in experiment [5] of 4.2 µM.

The term IC50 denotes the concentration needed to halve the response being measured.

(Values after BindingDB's records for doi:10.1002/cbic.200800600 (Parc De Recerca Biomedica De Barcelona, 2009).)
